The nature of data set [1]: Aqueous solubility of the compound in phosphate-buffered saline at pH 7.2 after 1 to 24 hrs. It counts as physicochemical.
Data set [2] deals with T1, Estradiol 17-beta-dehydrogenase 2 (Mus musculus) (UniProt P51658).
T1 sequence (whole entry): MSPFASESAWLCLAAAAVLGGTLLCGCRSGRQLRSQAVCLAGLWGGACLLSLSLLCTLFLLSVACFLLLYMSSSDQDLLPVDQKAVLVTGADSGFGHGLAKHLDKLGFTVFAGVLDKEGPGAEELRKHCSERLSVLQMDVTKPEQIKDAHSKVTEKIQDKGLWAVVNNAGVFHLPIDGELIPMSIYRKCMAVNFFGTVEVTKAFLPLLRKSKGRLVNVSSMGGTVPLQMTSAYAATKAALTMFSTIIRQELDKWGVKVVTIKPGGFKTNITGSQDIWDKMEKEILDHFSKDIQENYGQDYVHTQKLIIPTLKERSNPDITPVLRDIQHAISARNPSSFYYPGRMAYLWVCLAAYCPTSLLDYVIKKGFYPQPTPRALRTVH
Description: Inhibition of mouse liver homogenate 17beta-HSD2 at 1uM using [3H]-E2 as substrate in presence of NAD+ by radio-HPLC analysis relative to control. It counts as tissue-based.

The target in data set [3] is T2, 17-beta-hydroxysteroid dehydrogenase type 2 (Homo sapiens, UniProt P37059).
T2 sequence (P37059 whole entry): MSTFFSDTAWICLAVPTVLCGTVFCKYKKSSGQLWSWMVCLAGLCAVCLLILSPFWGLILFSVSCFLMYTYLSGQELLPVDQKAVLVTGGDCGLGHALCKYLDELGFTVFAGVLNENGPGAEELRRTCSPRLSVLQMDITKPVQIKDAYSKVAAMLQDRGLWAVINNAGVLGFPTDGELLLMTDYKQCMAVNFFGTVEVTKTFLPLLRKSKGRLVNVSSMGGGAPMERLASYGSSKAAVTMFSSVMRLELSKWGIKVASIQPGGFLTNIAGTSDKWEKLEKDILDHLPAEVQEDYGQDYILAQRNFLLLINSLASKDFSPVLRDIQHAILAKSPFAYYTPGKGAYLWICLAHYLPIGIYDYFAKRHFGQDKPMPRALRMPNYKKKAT
Description: Inhibition of human placental microsomal fraction 17beta-HSD2 using [3H]-E2 as substrate in presence of NAD+ by radio-HPLC analysis. In kind it is subcellular, Placenta.

Data set [4] has as its target T3, 17-beta-hydroxysteroid dehydrogenase type 1 (Homo sapiens, UniProt P14061).
T3 sequence (P14061 whole entry): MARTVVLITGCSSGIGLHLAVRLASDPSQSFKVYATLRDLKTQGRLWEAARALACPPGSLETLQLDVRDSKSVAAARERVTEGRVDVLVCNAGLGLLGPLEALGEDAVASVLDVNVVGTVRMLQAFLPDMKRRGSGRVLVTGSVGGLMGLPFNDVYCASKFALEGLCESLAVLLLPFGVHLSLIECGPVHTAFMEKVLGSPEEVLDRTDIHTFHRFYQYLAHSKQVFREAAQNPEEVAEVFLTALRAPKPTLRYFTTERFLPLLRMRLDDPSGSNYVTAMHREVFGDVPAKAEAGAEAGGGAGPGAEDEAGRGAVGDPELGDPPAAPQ
Description: Inhibition of human placental cytosolic fraction 17beta-HSD1 using [3H]-E1 as substrate in presence of […] by radio-HPLC analysis.

Data set [5] concerns the target T4, 17-beta-hydroxysteroid dehydrogenase type 2 (Homo sapiens) (UniProt P37059).
T4 sequence (whole entry): T2 sequence (P37059 whole entry)
Description: Inhibition of human placental microsomal fraction 17beta-HSD2 at 10 nM using [3H]-E2 as substrate in presence of NAD+ by radio-HPLC analysis relative to control. It counts as subcellular. Particulars: Placenta.

Data set [6] deals with T5, 17-beta-hydroxysteroid dehydrogenase type 1 (Homo sapiens) (UniProt P14061).
T5 sequence (whole entry): T3 sequence (P14061 whole entry)
The following applies: 10 nM.
Description: Inhibition of human placental cytosolic fraction 17beta-HSD1 at 10 nM using [3H]-E1 as substrate in presence of NAD+ by radio-HPLC analysis relative to control

Data set [7] deals with T6, Estradiol 17-beta-dehydrogenase 2 (Mus musculus, UniProt P51658).
T6 sequence (P51658 whole entry): T1 sequence (whole entry)
Description: Inhibition of mouse liver homogenate 17beta-HSD2 using [3H]-E2 as substrate in presence of NAD+ by radio-HPLC analysis. In kind it is tissue-based.

Data set [8] is described as follows: Half life in human liver S9 fraction at 1 uM in presence of NADPH. In kind it is ADME, subcellular.
Data set [9] in a line: Selectivity index, ratio of IC50 for mouse liver homogenate 17beta-HSD2 to IC50 for human placental cytosolic fraction 17beta-HSD1.
Data set [10] concerns the target T7, Steryl-sulfatase (Homo sapiens) (UniProt P08842).
T7 sequence (whole entry): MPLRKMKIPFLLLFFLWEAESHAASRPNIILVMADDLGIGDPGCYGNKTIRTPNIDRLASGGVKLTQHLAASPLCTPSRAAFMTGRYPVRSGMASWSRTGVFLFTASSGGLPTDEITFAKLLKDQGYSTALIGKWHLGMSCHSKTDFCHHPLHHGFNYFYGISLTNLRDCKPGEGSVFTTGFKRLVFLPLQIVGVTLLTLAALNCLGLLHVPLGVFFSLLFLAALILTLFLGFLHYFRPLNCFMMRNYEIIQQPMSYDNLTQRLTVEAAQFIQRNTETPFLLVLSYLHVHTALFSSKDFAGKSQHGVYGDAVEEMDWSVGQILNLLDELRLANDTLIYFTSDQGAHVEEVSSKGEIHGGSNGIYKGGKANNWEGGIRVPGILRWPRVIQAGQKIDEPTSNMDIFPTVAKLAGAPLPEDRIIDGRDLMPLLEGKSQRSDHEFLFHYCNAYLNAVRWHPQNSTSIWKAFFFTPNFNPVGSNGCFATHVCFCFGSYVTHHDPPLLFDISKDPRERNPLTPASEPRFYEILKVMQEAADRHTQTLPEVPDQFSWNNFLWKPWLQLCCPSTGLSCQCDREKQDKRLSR
Description: Inhibition of human steroid sulfatase expressed in T47D cells using [3H]-E1S as substrate by radio-HPLC analysis relative to control. It counts as cell-based. Particulars: concentration not given here.

The next data set has as its system HEK293. Description: Cytotoxicity against human HEK293 cells assessed as cell viability at 6.3 uM after 66 hrs by MTT assay. It counts as cell-based. Particulars: hek293, 66 h. For orientation: Tetrazolium assays rely on reduction of a dye to a coloured formazan, in cell work by metabolically active cells.
Data set [11] can be described thus: Selectivity index, ratio of cytotoxicity against HEK293 cells to IC50 for human placental cytosolic fraction 17beta-HSD1.

SMILES strings stand for the structures. ≈ marks a conversion by molar mass, not a printed value. A value given as a limit tells only on which side of the number the result lay.

What is called solubility is the concentration that dissolves in the medium under given conditions. The low end stands for little dissolved substance, the high end for much dissolved substance. As usually defined, the inhibition is the change of the read-out against control, counted positive when it falls. In general, IC50 refers to the concentration needed to halve the response being measured. For orientation: half-life means how long it takes for the measured level to halve.

Molecule `O=C(c1ccc(-c2cncc(F)c2)s1)c1cc(F)c(F)c(O)c1F` gave a solubility in [1] of more than 200 µM. Besides, the inhibition in data set [2] is 24%.

Consider `CS(=O)(=O)n1cc(-c2ccc(C(=O)c3c(F)ccc(O)c3F)s2)cn1`, for which the IC50 in data set [3] turned out to be 75 nM; in data set [4], 80 nM.

With `O=C(c1ccc(-c2cccc(NS(=O)(=O)c3ccccc3OC(F)(F)F)c2)s1)c1cc(F)c(F)c(O)c1F`, the solubility in data set [1] lay within 25 to 50 µM (≈ 14.3 to 28.7 µg/mL).

Turning to `NS(=O)(=O)c1cccc(-c2ccc(C(=O)c3c(F)ccc(O)c3F)s2)c1`, the inhibition in [5] was 26%; in [6], 34%.

As to `CS(=O)(=O)c1cccc(-c2ccc(C(=O)c3cc(F)c(F)c(O)c3F)s2)c1`, the IC50 is 18 nM in data set [3] and 8 nM in data set [4]. The molecule also yielded a solubility in [1] of more than 200 µM. Moreover, the inhibition in data set [2] was found to be 60%.

In the case of `NS(=O)(=O)Oc1ccc(-c2ccc(C(=O)c3cc(F)c(F)c(O)c3F)s2)cc1`, the IC50 in [3] is 6 nM; in data set [4] it was 35 nM; in data set [7], 80 nM. Moreover, the half-life at 1 µM in [8] worked out at 55 min. Moreover, the solubility in data set [1] was more than 200 µM. Also, the Ratio IC50 in [9] was less than 10. In data set [10], this molecule displayed an inhibition of 60%.

Consider `COc1c(Cl)cc(-c2ccc(C(=O)c3c(Cl)ccc(O)c3F)s2)cc1Cl`, for which the IC50 is 15 nM in data set [3] and 0.5 nM in data set [4]. The half-life at 1 µM in data set [8] was less than 5 min.

As to `Cc1cc(-c2ccc(C(=O)c3cc(F)c(F)c(O)c3C)s2)cc(C)c1O`, in data set [8], the half-life at 1 µM was 28 min. The same molecule returned a solubility in data set [1] of 15 to 25 µM (≈ 5.62 to 9.36 µg/mL).

As for `COc1c(Cl)cc(-c2ccc(C(=O)c3c(F)ccc(O)c3F)s2)cc1Cl`, the half-life at 1 µM in [8] was less than 5 min. Besides, the solubility in [1] is less than 5 µM.

Consider `O=C(c1ccc(-c2cc(Cl)c(O)c(Cl)c2)s1)c1c(Cl)ccc(O)c1F`, for which the IC50 in [3] was 18 nM; in data set [4], 3 nM.

As to `NS(=O)(=O)c1ccc(-c2ccc(C(=O)c3c(F)ccc(O)c3F)s2)cc1`, the inhibition in data set [5] is 54%; in data set [6], 18%.

Take `Cc1cc(-c2ccc(C(=O)c3cccc(O)c3C)s2)cc(C)c1O`: the half-life at 1 µM in [8] was determined as 25 min.

For the molecule `COc1c(Cl)cc(-c2ccc(C(=O)c3c(F)ccc(O)c3Cl)s2)cc1Cl`, the values for the 50% inhibitory concentration (IC50) in [3] and in [4] were 9.5 nM and 15 nM, respectively.

On to `Cc1cc(-c2ccc(C(=O)c3c(F)ccc(O)c3F)s2)cc(C)c1O`, for which, in [3], the IC50 stood at 7.3 nM. Besides, the half-life at 1 µM in data set [8] is less than 5 min. Further, the solubility in data set [1] was in the range of 15 to 25 µM (≈ 5.41 to 9.01 µg/mL).

In the case of `Cc1cc(-c2ccc(C(=O)c3cc(F)cc(O)c3C)s2)cc(C)c1O`, the results for the IC50 in data set [3] and in data set [4] were 76 nM and 6 nM, respectively. Also, in the data set with HEK293, the Activity result was “Non-Toxic”. The “Selectivity Index” value in [11] stood at 1050. Further, the half-life at 1 µM in data set [8] was found to be 22 min. In addition, in data set [1], the solubility is 100 to 200 µM (≈ 35.6 to 71.3 µg/mL).

The values are drawn from ChEMBL document CHEMBL4364247, “Development of potential preclinical candidates with promising in vitro ADME profile for the inhibition of type 1 and type 2 17β-Hydroxysteroid dehydrogenases: Design, synthesis, and biological evaluation” (Eur J Med Chem, 2019).
